“Also recorded” adds a separate entry of the source.
Assays:
[1] = test system: GLI1 and PTCH1 expression in DAOY shSUFU cells; assay: Western blot / qPCR in SUFU knockdown (shSUFU) DAOY cells, SMO-independent GLI activation; type: cell-based, human; settings: for PTCH1 mRNA expression: qPCR
Description: (§1) DAOY cells (ATCC) were grown in MEM media (PAA Laboratories, Germany) supplemented with 10% fetal bovine serum (FBS) (PAA Laboratories, Germany), penicillin (62.5 μg/ml) and streptomycin ([…]) at 37° C. in an atmosphere containing 5% CO2. BSZ2 cells (So et al., 2006) were grown in 154-CF media (Life Technologies, UK) supplemented with 2% heat inactivated (56° C. for 30 minutes) and chelexed fetal bovine serum (FBS) (PAA Laboratories, Germany) (FBS was chelexed by adding to 50 mL FBS 10 g Chelex 100 (Bio-Rad Laboratories GmbH, Germany) followed by stirring for 60 min at RT; chelexed FBS was sterile filtered prior to use), penicillin (62.5 μg/ml) and streptomycin ([…]) at 37° C. in an atmosphere containing 5% CO2. Panc-1 and A673 cells (ATCC) were grown in DMEM media (PAA Laboratories, Germany) supplemented with 10% fetal bovine serum (FBS) (PAA Laboratories, Germany), penicillin (62.5 μg/ml) and streptomycin ([…]) at 37° C. in an atmosphere containing 5% CO2. For 3-dimensional (3D) cultures, 5×10^3 cells were seeded in 12-well plates in 0.4% select agar on top of 0.5% bottom select agar (Life Technologies, Germany) according to standard protocols of anchorage independent growth assays (Eberl et al., 2012). 3D cultures were grown for 4-6 weeks at 37° C. in a humidified atmosphere containing 5% CO2. Colony formation was documented on a stereomicroscope with Cell^D Image capture system (Olympus) and quantified using Colony Counter Software (Microtec Nition, Japan). SAG (smoothened agonist, N-Methyl-N′-(3-pyridinylbenzyl)-N′-(3-chlorobenzo[b]thiophene-2-carbonyl)-1,4-diaminocyclohexane) (Axxora LCC), Harmine (Fisher Scientific), GDC-0449 (LC Laboratories), GANT61 (Merck Chemicals Ltd.) and 4SC Compound P (4SC Discovery GmbH, Germany) were dissolved in DMSO. The final DMSO concentration in all wild-type DAOY samples was 0.2%, in all other cell line experiments including DAOY shSUFU cells 0.1%.
In the examples of the present invention, RNAi knockdown experiments were facilitated by lentiviral RNAi production and transductions, which were carried out as described in Kasper et al, 2007, which is incorporated herein by reference (Kasper et al., 2007). The following shRNA constructs (Sigma Aldrich mission TRC library) were used and the following abbreviations are used herein: shRNA DYRK1A (TRCN0000000526), shRNA DYRK1B-1 (TRCN0000002139), shRNA DYRK1B-2 (TRCN0000355722), shSUFU (TRCN0000019466) and control scrambled shRNA (SHC002). […] Transduced cells were selected for puromycin resistance prior to further analysis.
Total RNA was isolated using TRI-reagent (Molecular Research Center Inc.) followed by LiCl purification step. […]

[2] = test system: Hedgehog signaling pathway (GLI1, GLI2, PTCH1 expression) in DAOY cells; assay: Western blot / qPCR of Hedgehog target genes in SAG-stimulated DAOY medulloblastoma cells; type: cell-based, human; settings: for GLI1 protein expression: Western blot; for HH signaling / GLI target gene activation: SAG stimulated DAOY cells, Harmine 10 or 25 μM, Cpd P 1 or 5 μM
Description: as §1
Total RNA was isolated using TRI-reagent (Molecular Research Center Inc.) followed by LiCl purification step. For this purpose, total RNA was dissolved in 100 mM Hepes pH 7.4/6M Urea and selectively precipitated by adding LiCl to a final concentration of 3M and incubating for 2 h at −20° C. Precipitated and purified RNA was used for cDNA synthesis using Superscript II reverse transcriptase (Life Technologies, Germany) according to the manufacturer's instructions. qPCR was done on a Rotorgene3000 (Qiagen, Germany) using iQ Sybr Green Supermix reagent (Bio-Rad Laboratories, UK). For qPCR analysis the following primer pairs (Microsynth AG, Switzerland) were used:
For Western blot analysis, cells were lysed in Laemmli buffer supplemented with PhosStop (Roche, Germany) and cOmplete EDTA-free Protease Inhibitor Cocktail (Roche, Germany). Proteins were visualized with horseradish peroxidase-conjugated secondary antibodies in combination with enhanced chemiluminescence detection system (GE Health Care, USA).
To address the effect of selected gene perturbations on canonical endogenous Hedgehog signaling in a human cancer cell line, the human medulloblastoma cell line (DAOY, ATCC ident. HTB-186) showing full responsiveness to Hedgehog activation by Smoothened agonist (SAG) as evidenced by activation of the direct Hedgehog target gene GLI1, a reliable and robust indicator of Hedgehog signaling pathway activity (FIG. 1) (Chen et al., 2002).
SAG stimulated DAOY cells were treated with Harmine (7-MeO-1-Me-9H-pyrido[3,4-b]-indole) (dissolved at room temperature as 25 mM stock solution in DMSO and used at final concentration of 10 μM or 25 μM), a naturally occurring DYRK1 inhibitor, as well as with Compound P (Cpd P, dissolved at room temperature in DMSO as 20 mM stock solution and used at final concentration of 1 μM or 5 μM, respectively), a small molecule inhibitor of DYRK1, which is structurally unrelated to Harmine.

[3] = test system: GLI1 protein expression in PANC1 cells; assay: Western blot of PANC1 pancreatic cancer cells; type: cell-based, human; settings: for GLI1 protein expression: GDC-0449 0.5 μM
Description: as §1, with “0.1%. […]” for “0.1%.”
(§2) The function of DYRK1 isoforms in SMO-independent/GLI-dependent pancreatic cancer and Ewing's sarcoma (EWS) cell lines PANC1 and A673, respectively, was analyzed. […]

[4] = test system: GLI1 protein expression in A673 cells; assay: Western blot of Ewing sarcoma cell line A673; type: cell-based, human; settings: for GLI1 protein expression: GDC-0449 0.5 μM
Description: as §1, with “0.1%. […]” for “0.1%.”
as §2

[5] = test system: tumor-initiating L3.6pl pancreatic cancer cells; assay: Anchorage-independent 3D culture clonal growth (tumorsphere) assay, L3.6pl; type: cell-based; settings: anchorage-independent 3D cultures
[6] = test system: tumor-initiating PANC1 pancreatic cancer cells; assay: Anchorage-independent 3D culture clonal growth (tumorsphere) assay, PANC1; type: cell-based, human; settings: PANC1, anchorage-independent 3D cultures
Description: (§3) DAOY cells (ATCC) were grown in MEM media (PAA Laboratories, Germany) supplemented with 10% fetal bovine serum (FBS) (PAA Laboratories, Germany), penicillin (62.5 μg/ml) and streptomycin ([…]) at 37° C. in an atmosphere containing 5% CO2. BSZ2 cells (So et al., 2006) were grown in 154-CF media (Life Technologies, UK) supplemented with 2% heat inactivated (56° C. for 30 minutes) and chelexed fetal bovine serum (FBS) (PAA Laboratories, Germany) (FBS was chelexed by adding to 50 mL FBS 10 g Chelex 100 (Bio-Rad Laboratories GmbH, Germany) followed by stirring for 60 min at RT; chelexed FBS was sterile filtered prior to use), penicillin (62.5 μg/ml) and streptomycin ([…]) at 37° C. in an atmosphere containing 5% CO2. Panc-1 and A673 cells (ATCC) were grown in DMEM media (PAA Laboratories, Germany) supplemented with 10% fetal bovine serum (FBS) (PAA Laboratories, Germany), penicillin (62.5 μg/ml) and streptomycin ([…]) at 37° C. in an atmosphere containing 5% CO2. […] Colony formation was documented on a stereomicroscope with Cell^D Image capture system (Olympus) and quantified using Colony Counter Software (Microtec Nition, Japan). […]

[7] = test system: GLI1 expression in BSZ2 cells; assay: Western blot of GLI1 in Ptch-/- BCC cells (BSZ2); type: cell-based; settings: mouse Ptch-/- BCC cells (BSZ2)
Description: as §3

DYRK1A = biological target: T1, DYRK1A (Homo sapiens, UniProt Q13627); assay: In vitro DYRK1A kinase assay (33P-ATP, DYRKtide substrate, Reaction Biology Corp.); type: biochemical; settings: 10 μM ATP, 20 μM DYRKtide, 0.3 nM enzyme
T1 construct: full-; Insect; N-terminal; length; GST; GST (N); purchased Reaction Biology Corp; host or cells: Insect
Description: (§4) The assay was carried out by Reaction Biology Corp., Malverne, Pa., USA according to specifications by Reaction Biology Corp., as detailed herein below and further described in Anastassiadis et al., Nature Biotechnology, 29 (2011) 1039-1045.
(§5) DYRK1A: The substrate DYRKtide (synthetic peptide […]) (SEQ ID NO: 5) was dissolved in freshly prepared Base Reaction Buffer (20 mM Hepes (pH 7.5), 10 mM MgCl2, 1 mM EGTA, 0.02% Brij35, 0.02 mg/ml BSA, 0.1 mM Na3VO4, 2 mM DTT, 1% DMSO) at a concentration of 20 μM. DYRK1A was added to the substrate solution in a concentration of 0.3 nM and gently mixed. Compound dilution series in DMSO were added to the reaction, followed 20 min later by addition of a mixture of ATP and ^33P ATP (0.01 μCi/μl final) to a final concentration of 10 μM. Reactions proceeded at 25° C. for 120 min, followed by spotting onto P81 ion exchange filter paper. Unbound phosphate was removed by extensive washing of the filters in 0.75% phosphoric acid. […] IC50 values and curve fits were obtained using Prism (Graph Pad Software).
(§6) DYRK1A and DYRK1B used in the above assays are further described in the below table: […]

DYRK1B = biological target: T2, DYRK1B (Homo sapiens, UniProt Q9Y463); assay: In vitro DYRK1B kinase assay (33P-ATP, DYRKtide substrate, Reaction Biology Corp.); type: biochemical; settings: 10 μM ATP, 20 μM DYRKtide
T2 construct: full-; Insect; N-terminal; length; GST; GST (N); purchased Reaction Biology Corp; host or cells: Insect
T2 sequence (Q9Y463 whole entry): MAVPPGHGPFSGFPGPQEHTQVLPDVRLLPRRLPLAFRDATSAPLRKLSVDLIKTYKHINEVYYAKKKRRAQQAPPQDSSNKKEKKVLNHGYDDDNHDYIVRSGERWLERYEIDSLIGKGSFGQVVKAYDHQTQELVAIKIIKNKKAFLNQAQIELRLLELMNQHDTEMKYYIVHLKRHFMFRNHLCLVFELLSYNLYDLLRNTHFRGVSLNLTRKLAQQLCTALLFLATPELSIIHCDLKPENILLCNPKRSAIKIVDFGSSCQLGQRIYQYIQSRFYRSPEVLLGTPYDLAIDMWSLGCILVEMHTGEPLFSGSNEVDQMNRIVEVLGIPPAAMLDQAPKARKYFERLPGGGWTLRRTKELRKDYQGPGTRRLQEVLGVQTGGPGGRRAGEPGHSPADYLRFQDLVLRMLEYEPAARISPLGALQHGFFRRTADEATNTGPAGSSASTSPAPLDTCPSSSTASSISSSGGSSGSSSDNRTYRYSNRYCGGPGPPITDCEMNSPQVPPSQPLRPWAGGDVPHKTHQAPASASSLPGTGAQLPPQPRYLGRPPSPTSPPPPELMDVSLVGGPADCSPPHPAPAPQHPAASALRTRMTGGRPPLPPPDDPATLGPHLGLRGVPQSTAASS
Description: as §4, §5
The assay for DYRK1B was carried out as described above for DYRK1A, with the exception that instead of DYRK1A, DYRK1B was added to the substrate solution and gently mixed.
as §6

[8] = DAOY cells, 100 nM SAG 48 hours, starving conditions

SMILES	GLI1 mRNA expression [1]	PTCH1 mRNA expression [1]	GLI1 protein expression [2, 8]	GLI1 protein expression [3]	GLI1 protein expression [4]	GLI1 expression (protein) ([1]; Western blot)	clonal growth (sphere numbers) [5]	clonal growth (sphere numbers) [6]	HH signaling / GLI target gene activation [2]	PTCH1 mRNA expression ([2]; qPCR, DAOY cells, 100 nM SAG 48 hours, starving conditions)	Beta Catenin and STAT3 expression [3]	Beta Catenin expression [4]	GLI1 expression [7]	IC50 (DYRK1A)	IC50 (DYRK1B)
CN(C)c1ccccc1CN1CCCN(Cc2ccccc2N(C)C)C1c1ccncc1 [GANT61, 2,2′-[[Dihydro-2-(4-pyridinyl)-1,3(2H,4H)-pyrimidinediyl]bis-(methylene)]bis[N,N-dimethylbenzenamine)]	down-regulation	down-regulation; also recorded: sensitive	–	–	–	–	–	–	–	–	–	–	–	–	–
CS(=O)(=O)c1ccc(C(=O)Nc2ccc(Cl)c(-c3ccccn3)c2)c(Cl)c1 [GDC-0449, 2-chloro-N-(4-chloro-3-(pyridin-2-yl)phenyl)-4-(methylsulfonyl)benzamide]	–	resistant	efficiently blocked	resistance; also recorded: inability	inability	unaffected; also recorded: resistant	not	not and did not affect	–	–	–	–	–	–	–
COc1ccc2c(c1)[nH]c1c(C)nccc12 [Harmine, 7-MeO-1-Me-9H-pyrido[3,4-b]-indole]	–	–	significantly inhibited	reduces; also recorded: reduced levels of GLI1	reduces; also recorded: reduced levels of GLI1	–	reduces sphere numbers	reduces sphere numbers; also recorded: reduced clonogenic growth	significant reduction	significantly inhibited	essentially unaffected	essentially unaffected	reduced GLI1 expression	–	–
FC(F)(F)c1ccc2[nH]c(Nc3ncccn3)nc2c1 [Compound P, N-(pyrimidin-2-yl)-5-(trifluoromethyl)-1H-benzo[d]imidazol-2-amine]	–	–	significantly inhibited	–	–	–	–	–	significant reduction	–	–	–	–	22.2 nM	54.8 nM

Reference: patent US9951050B2, “Method of inhibiting DYRK1B” (4SC Discovery GmbH, priority 2013, dated 2018)
